Experimental data: patent publication US4837228A, “Antiinflammatory and antimicrobial compounds and compositions” (The University of Mississippi, priority 1982, dated 1989)
≈ marks a conversion by molar mass, not a printed value. Entries after “also recorded” stand apart in the source; their conditions may differ. Like-named read-outs stand apart in the source and are kept apart here.

What was measured:
[1] = CNS screen in unanesthetized mice; format: in vivo; conditions: doses as large as 800 mg/kg
[2] = system: carrageenan-induced rat paw edema; experiment: carrageenan-induced rat paw edema test, intraperitoneal dosing; format: in vivo; design: key to mean difference in volume (MDV): post-injection minus pre-injection mean paw volume; key to group mean difference score: post-injection minus pre-injection paw volume score; conditions: for percent increase in paw volume / percent of control / mean difference in volume (MDV): Table 1; for group mean difference score / difference of mean scores versus vehicle control (Duncan's test) / difference of mean scores (Duncan's test): Table 3
Protocol: Two methods were used to assess the antiinflammatory activity of the compounds of the invention: the carrageenan-induced rat paw edema test and, the erythrocyte membrane stabilization assay.
(§1) In the Rat Paw Edema Test, the rats utilized were divided into test groups of six to eight animals, weighed and marked so that individual rats could be identified; one hour before testing all rats were given a 700 mg/kg intraperitoneal injection of ethyl urethane in distilled water to render them tractable during testing. A circle was drawn, with a felt-tipped marker, around the hind leg of each rat just above the ankle, and each rat was dosed with a test or control compound by intraperitoneal injection. Negative control groups received the vehicle; while positive control groups received a dose of phenylbutazone (PBZ) as shown in Table II. Test compounds were given at doses of 60, 120, 240 and 480 mg/kg. The positive controls were given at 120 mg/kg and 60 mg/kg. Phenylbutazone was prepared for injection by suspending it in normal saline using Tween 60. The rats were then held in group cages for 30 minutes. The volume of the left hind paw was measured using a mercury displacement pleysmograph. The paw is dipped into the mercury until the mercury touches the line above the ankle. Mercury is then withdrawn until the mercury returns to its original level. The amount of mercury removed is measured in milliliters (ml). The mercury can be measured accurately to 0.01 ml. This left hind paw was then injected with 0.1 ml of a 5% w/v solution of viscous carageenan in normal saline. The injection was given between the metatarsal bones using a 27 gauge needle, and the rats then held in group cages for 3 hours. The volume of the left hind paws was measured again in the pleysmograph. The results were computed in the following manner:
a. A mean is taken for both the pre-injection and post-injection paw volume of each test group.
b. The mean difference in volume (MDV) for each test group is computed by subtracting the pre-injection means from the post-injection mean.
c. The percent of control is computed for each test [formula] The percent of control is used to compare the efficacy of the various drug treatments.
d. The percent increase in paw volume is calculated for each group as: [formula] The percent increase is used to compare the amount of edma observed in one experiment to the amount of edma observed in other experiments.
The data from the rat paw test were further analyzed using a one-way analysis of varience (ANOVA) and Duncan's New Multiple Range Test. The pre-injection score of each animal was subtracted from his post-injection score and an analysis of the different scores were conducted.
The procedure described above was followed. […] The vehicle control used was Tween 60, Arlacel and distilled water prepared without CBC(II).

[3] = inducement of hypothermia in mice (rectal temperature); format: in vivo; conditions: 100 mg/kg i.p.
Protocol: CBC (100 mg/kg) was prepared in emulsion form with 3% Tween 60 and 3% Arlacel in normal saline (0.9%) in such a way as to permit a volume of […] of body weight to be injected intraperitoneally into male mice weighing between 32 and 38 grams.
The animals were divided into groups of 10, and body temperatures were recorded with a multichannel Yellow Springs Telethermometer and Thermistor probes. During the experiment, the mice were confined in plastic restraint tubes. They were allowed 45-60 min. for adaption to the restraint tubes and to rectal thermister before a pre-drug baseline temperature reading was taken. Body temperature readings were obtained at 0.5, 1.0, 2.0, 3.0 and 4.0 hrs. post-CBC administration.
The mean (±S.E.) decrease in temperature from the preinjection baseline reading for saline-, vehicle-, and CBC-treated mice were calculated and statistical analyses were conducted using the two-tailed Student's t test.

[4] = deaths and adverse effects observed in the rat paw edema test; format: in vivo; conditions: 480 mg/kg i.p. plus ethyl urethane i.p.
Protocol: as §1
The eighth rat died within 24 hours of injection.

Staphylococcus aureus = experiment: agar well diffusion assay, S. aureus; format: cell-based; conditions: from edge of agar well
Protocol: (§2) Both qualitative and quantitative screens were performed. Qualitative screening was accomplished using the agar well diffusion assay technque while quantitative screening was accomplished by the two-fold (broth) serial dilution method to determine the minimum inhibitory concentration (MIC). Innoculation was accomplished with one loop-full of a 1:10 dilution of the 24-hour-old broth culture, (fungal cultures and M.smegmatis more often required 48 to 72 hours of incubation) of the test organisms in sterile water. Streptomycin sulfate was used as a positive control for antibacterial activity while amphitericin B was used as an antifungal positive control. Organisms utilized in the screens included gram-positive, gram-negative, and acid-fast bacteria as well as different types of fungi. […] An intermediate type activity is seen where R is hydrogen. However, where R is lengthened up to C15 a decrease in activity was noted. Total saturation of the two double bonds in the compounds having a methyl side chain lead, in most cases, to an increase in both antifungal and antibacterial activity.

[5] = system: Trichophyton mentagrophytes; experiment: MIC, two-fold (broth) serial dilution, T. mentagrophytes; format: cell-based
Outline: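 Inoculation used a single loop of diluted (1:10) 24-hour broth culture suspended in sterile water, with incubation extended to 48–72 hours for fungi and M. smegmatis. Activity is read qualitatively by well diffusion on agar and quantitatively as MIC via twofold dilution series.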

Mycobacterium smegmatis = experiment: agar well diffusion assay, M. smegmatis; format: cell-based; conditions: from edge of agar well
Protocol: as §2

Pseudomonas aeruginosa = experiment: agar well diffusion assay, Ps. aeruginosa; format: cell-based; conditions: from edge of agar well
Protocol: as §2

[6] = Rattus norvegicus, ip, read-out: inhibition of carrageenan-induced rat paw edema

CCCCCc1cc(O)c2c(c1)OC(C)(CCC=C(C)C)C=C2 (stereo not shown) [CBC (I), 2-methyl-2(4'methyl-pent-3'-enyl)-5-hydroxy-7-pentyl chromene]
effects on the CNS screen [1]: No significant effects | inhibition at 120 mg/kg [2, 6]: 70% | inhibition at 240 mg/kg [2, 6]: 86% | inhibition at 480 mg/kg ([2]; Rattus norvegicus, ip, Table 5, 480 mg/kg i.p.): 100% | percent increase in paw volume ([2]; 120 mg/kg i.p.): 12.729% | percent of control ([2]; 120 mg/kg i.p.): 30.000% | mean difference in volume (MDV) ([2]; 120 mg/kg i.p., paw volume measured in ml): 0.139 | mean difference in volume (MDV) ([2]; 240 mg/kg i.p.): 0.004 | percent increase in paw volume ([2]; 240 mg/kg i.p.): 0.365% | percent of control ([2]; 240 mg/kg i.p.): 0.927% | mean difference in volume (MDV) ([2]; 480 mg/kg i.p.): -0.043 | percent increase in paw volume ([2]; 480 mg/kg i.p.): -3.708% | percent of control ([2]; 480 mg/kg i.p.): -9.189% | group mean difference score ([2]; 120 mg/kg): 0.139 | difference of mean scores versus vehicle control (Duncan's test) ([2]; 120 mg/kg, ** p 0.01): 0.324 | group mean difference score ([2]; 240 mg/kg): 0.004 | difference of mean scores versus vehicle control (Duncan's test) ([2]; 240 mg/kg, ** p 0.01): 0.458 | group mean difference score ([2]; 480 mg/kg): 0.043 | difference of mean scores versus vehicle control (Duncan's test) ([2]; 480 mg/kg, ** p 0.01): 0.505 | difference of mean scores (Duncan's test) ([2]; CBC 120 mg/kg versus CBC 240 mg/kg, * p 0.05): 0.134 | difference of mean scores (Duncan's test) ([2]; CBC 120 mg/kg versus CBC 480 mg/kg, ** p 0.01): 0.181 | difference of mean scores (Duncan's test) ([2]; CBC 120 mg/kg versus PBZ 120 mg/kg): 0.033 | difference of mean scores (Duncan's test) ([2]; CBC 240 mg/kg versus CBC 480 mg/kg): 0.047 | antiinflammatory effect in words ([2]; i.p.): strong antiinflammatory effects | significance of difference (ANOVA, Duncan's test) ([2]; i.p., difference scores, listed as CBC): The 120 mg/kg dose of CBC differed significantly from the 240 and 480 mg/kg doses of CBC; also recorded: the 480 mg/kg dose of CBC differed significantly from the 120 mg/kg dosage of PBZ | time of peak hypothermic effect [3]: within the first two hours | mean (±S.E.) decrease in rectal temperature ([3]; 0.5 hrs): 1.86 ± 0.18 °0 | mean (±S.E.) decrease in rectal temperature ([3]; 1.0 hrs): 2.52 ± 0.26 °0 | mean (±S.E.) decrease in rectal temperature ([3]; 2.0 hrs): 1.93 ± 0.21 °0 | mean (±S.E.) decrease in rectal temperature ([3]; 3.0 hrs): 1.53 ± 0.21 °0 | mean (±S.E.) decrease in rectal temperature ([3]; 4.0 hrs): 1.61 ± 0 °0 | hypothermia, significance versus controls ([3]; listed as CBC): significantly different from saline controls at all readings; also recorded: significantly different from vehicle controls at 0.5, 1.0 and 4.0 hrs | deaths [4]: All the animals receiving 480 mg/kg died within 2 days of injection | width of inhibition zone (Staphylococcus aureus; 24 hr): 10. mm | width of inhibition zone (Staphylococcus aureus; 48 hr): 10. mm | MIC ([5]; 48 hr): 25.0 µg/mL (≈ 79.5 µM) | MIC ([5]; 72 hr): 50.0 µg/mL (≈ 159 µM) | MIC ([5]; Trichophyton mentagrophytes, 48 h, read-out: MIC): 25 µg/mL (≈ 79.5 µM) | MIC ([5]; Trichophyton mentagrophytes, 72 h, read-out: MIC): 50 µg/mL (≈ 159 µM) | width of inhibition zone (Mycobacterium smegmatis; 24 hr): 15. mm | width of inhibition zone (Mycobacterium smegmatis; 48 hr): 12. mm | width of inhibition zone (Pseudomonas aeruginosa; 24 hr): 1. mm | width of inhibition zone (Pseudomonas aeruginosa; 48 hr): 1. mm
